Read-outs that look alike come from different tables or passages of the source.

In experiment [1] the test system is extensor digitorum longus muscle. Particulars: rat hind limb extensor digitorum longus; cited from earlier work.
Experiment [2] deals with eye muscles (lateral rectus muscle). In kind it is in vivo, human.
Experiment [3] shares this test system. Particulars: bupivacaine injected into eye muscles of strabismus patients; cited from earlier work.

As for `CCCCN1CCCCC1C(=O)Nc1c(C)cccc1C` (stereo not drawn) [bupivacaine], the “muscle size after injection” value in experiment [1] is recorded as “enlargement of the muscle beyond its original size”. The “change of eye alignment” value in experiment [2] (bupivacaine alone into lateral rectus) is “ineffective in changing eye alignment”. Further, in experiment [2] (human, in vivo), the correction of strabismus entry was “successful correction of strabismus” and the “length of regenerated lateral rectus muscle” value was “shorter length”. Further, the “length of regenerated lateral rectus muscle” value in experiment [2] (one case of esotropia, bupivacaine alone, antagonist medial rectus unopposed) is reported as “longer muscle”. Further, the “myotoxicity and weakness of the injected lateral rectus muscle” value in experiment [2] (one case of esotropia, bupivacaine alone, first injection) is on record as “very pronounced”. In addition, in experiment [3], the “effect on strabismus deviations” value is reported as “correction or improvement of strabismus deviations”, the “period of hypertrophy (growth beyond the original state) after regeneration” value was 20 to 30 days and the “period of muscle weakness after injection” value is reported as 7 to 16 days.

(Values after patent publication US8193220B1 (priority 2009, dated 2012).)
